Literature values in patent publication US10624856B2, “Non-extractable oral solid dosage forms” (Dharma Laboratories LLC, priority 2018, dated 2020).

What was measured:
[1] = in vivo

Which half-life [1] does the source give for Oc1ccc2c3c1O[C@H]1[C@H](O)CC[C@@]4(O)[C@@H](C2)N(CC2CC2)CC[C@]314 [6-beta-naltrexol] here?
The half-life was 16 h.

For C=CCN1CC[C@]23c4c5ccc(O)c4O[C@H]2C(=O)CC[C@@]3(O)[C@H]1C5 [Naloxone], which “oral bioavailability (in words)” value ([1]; po) is on record?
Its value is “low”.

With O=C1CC[C@@]2(O)[C@H]3Cc4ccc(O)c5c4[C@@]2(CCN3CC2CC2)[C@H]1O5 [Naltrexone] as the compound, how does the Plasma protein binding read?
The Plasma protein binding was 21%.
